Results on 1 compound are retold here after patent US20230372382A1, “USE OF ADENOSINE DIPHOSPHATE RIBOSE FOR ADJUVANT THERAPY WITH RADIATION AND/OR ANTI-CANCER TREATMENT” (PearlsInMires Co., Ltd., priority 2021, published 2023).

Assay [1] relates to Breast cancer (MDA-MB-231) cells. Nature of the assay: Xenograft model, combination with radiation, tumor volume. In kind it is in vivo, BALB/c nude mice. As to conditions: MDA-MB-231 xenograft. How it is done: Brain cancer (U-87MG), pancreatic cancer (AsPC-1), breast cancer (MDA-MB-231), or kidney cancer (Caki-1) cells (1×10^7 cells) were inoculated into 5-week-old BALB/c nude mice on the back flank, respectively. Then, when tumors were grown to a volume of approximately 150 mm^3, the mice were divided into three groups: the control group (Control), 2 Gy dose of radiation alone, and a combination administration of 2 Gy dose of radiation+10 mg/kg of ADP-ribose (subcutaneous administration, 3 times a week). The irradiation was performed with an X-Rad 320 irradiator (Precision X-ray, North Branford, CT, USA), wherein the mice were placed by maintaining an appropriate distance from the radiation source for irradiation with a predetermined radiation dose. A lead shield was used to protect the body parts or organs from exposure to radiation, other than the cancerous part of the mouse. The irradiation was performed with a total of 2 Gy of radiation fractionated into two doses of 1 Gy each (for 2 days) at a dose rate of 300 kVp and 150 cGy/min using an X-ray beam filter composed of 12.5 mA and 2.0 mm Al. The tumor size was measured every 6 days using a digital caliper, and the results of changes in tumor volume were compared by the group.
Breast cancer (MDA-MB-231) cells (1×10^7) were inoculated into 5-week-old BALB/c nude mice on the back flank, and the mice were divided into three groups: the control group (Control), 2 Gy dose of radiation alone, and combination administration of 2 Gy dose radiation+20 mg/kg of ADP-ribose. When the tumors were grown to a volume of approximately 150 mm^3, 2 Gy dose of radiation was irradiated twice at 1 Gy each, and 20 mg/kg of ADP-ribose was injected subcutaneously 3 times a week. The tumor size was measured using a digital caliper, and the results of changes in tumor volume were compared by the group.

Another assay relates to MDA-MB-231 cells. Nature of the assay: ADP-ribose quantitative analysis (ELISA) in cancer cells. It is filed as cell-based. Conditions: 16 μM ADP-ribose, 24 hours, P<0.001. How it is done:
After culturing, the culture medium was removed, the cells were washed with phosphate-buffered saline, and then RIPA buffer was added and the cells were left on ice for 20 minutes. After scraping the cells, the cells were put in a centrifuge tube and centrifuged for 10 minutes at 10,000 g and 4° C. The supernatant was obtained, and 1% SDS was added, and then the reaction product was boiled at 100° C. for 5 minutes and cooled on ice. The supernatant was centrifuged again at 10,000 g and 4° C. for 10 minutes to obtain the final supernatant, and ADP-ribose was quantitatively analyzed and compared using an ELISA analysis kit (Cell Biolabs, Inc., San Diego, CA, USA).
5×10^5 MDA-MB-231 cells were divided into the untreated group and 16 μM ADP-ribose-treated group and cultured in Leibovitz's L-15 medium supplemented with 10% fetal calf serum+100 units/ml penicillin+100 μg/ml streptomycin under conditions of 37° C. and 5% CO2 for 24 hours. The medium of the cultured cells was removed, and the supernatant prepared by treatment with RIPA buffer and 1% sodium dodecyl sulfate (SDS) was used for ELISA analysis to detect and analyze ADP-ribose.

The test system of another assay is Caki-1 cells. Briefly: Cell death by combination treatment of ADP-ribose and radiation (MTT). In kind it is cell-based. Conditions: Caki-1, 16 μM ADP-ribose in combination with 2 Gy radiation, 24 hours, P<0.001; 2 Gy alone about 94.7%.
Another assay has as its system AsPC-1 cells. Nature of the assay: Change over time in intracellular ADP-ribose, radiation versus ADP-ribose treatment (ELISA). Conditions: AsPC-1, 2 μM ADP-ribose, even after 24 hours; after radiation back to untreated level from 16 hours. It is filed as cell-based. How it is done: Brain cancer (U-87MG), kidney cancer (Caki-1), pancreatic cancer (AsPC-1), or breast cancer (MDA-MB-231) cells were cultured in a 6-well plate, respectively, and the cells were divided into the untreated group, the radiation-treated group, and the ADP-ribose-treated group. Irradiation was performed using an X-Rad 320 irradiator (Precision X-ray, North Branford, CT, USA), and cancer cells were treated with a total of 1, 2, and 5 Gy at a dose rate of 300 kVp and 150 cGy/min using an X-ray beam filter composed of 12.5 mA and 2.0 mm Al, respectively. Before treatment and at 4, 8, 16, and 24 hours after treatment, the medium was removed, the cells were washed with phosphate-buffered saline, and then RIPA buffer was added and the products were left on ice for 20 minutes. After scraping the cells, the cells were put in a centrifuge tube and centrifuged for 10 minutes at 10,000 g and 4° C. The supernatant was obtained, and 1% SDS was added, and then the reaction product was boiled at 100° C. for 5 minutes and cooled on ice. The supernatant was centrifuged again at 10,000 g and 4° C. for 10 minutes to obtain the final supernatant, and ADP-ribose was quantitatively analyzed using an ELISA analysis kit (Cell Biolabs, Inc., San Diego, CA, USA). […]

Another assay relates to Hep G2 cells. Nature of the assay: Cell death by combination treatment of ADP-ribose and radiation (MTT). In kind it is cell-based. Conditions: Hep G2, 4 μM ADP-ribose in combination with 2 Gy radiation, 24 hours, P<0.001; 2 Gy alone about 82.3%.
The mark [2] stands for this setting: ADP-ribose 20 mg/kg s.c. + 2 Gy radiation, P<0.001.

The structures appear in SMILES notation.

Protocol for Caki-1 cells: 3×10^3 Caki-1 cells were cultured in a 96-well plate for 24 hours under conditions of 37° C. and 5% CO2, treated with 16 μM of ADP-ribose and 2 or 5 Gy dose of radiation individually or in combination, and cultured for 24 hours under conditions of 37° C. and 5% CO2 again. Then, 10 μl of 3-(4,5-dimethylthiazol-2-yl)-2,5-diphenyltetrazolium bromide reagent was added to each well and reacted for 1 hour. After the reaction was completed, the reagent was removed, 200 μl of dimethyl sulfoxide was added to each well, and the absorbance was measured to confirm cell viability.
Protocol for Hep G2 cells: 3×10^3 Brain cancer (U-87MG), lung cancer (H1975), pancreatic cancer (Aspc-1), liver cancer (Hep G2), breast cancer (MDA-MB-231), colon cancer (HCT116), and kidney cancer (Caki-1) cells were cultured in a 96-well plate for 24 hours under conditions of 37° C. and 5% CO2, treated with ADP-ribose or 2 or 5 Gy radiation alone or in combination with ADP-ribose and 2 Gy radiation, and cultured for 24 hours under conditions of 37° C. and 5% CO2 again. Then, 10 μl of 3-(4,5-dimethylthiazol-2-yl)-2,5-diphenyltetrazolium bromide reagent was added to each well and reacted for 1 hour. After the reaction was completed, the reagent was removed, 200 μl of dimethyl sulfoxide was added to each well, and the absorbance was measured to compare the degree of cell death.
3×10^3 Hep G2 cells were cultured in a 96-well plate for 24 hours under conditions of 37° C. and 5% CO2, treated with 4 μM of ADP-ribose and 2 or 5 Gy dose of radiation individually or in combination, and cultured for 24 hours under conditions of 37° C. and 5% CO2 again. Then, 10 μl of 3-(4,5-dimethylthiazol-2-yl)-2,5-diphenyltetrazolium bromide reagent was added to each well and reacted for 1 hour. After the reaction was completed, the reagent was removed, 200 μl of dimethyl sulfoxide was added to each well, and the absorbance was measured to confirm cell viability.

As for `Nc1ncnc2c1ncn2[C@@H]1O[C@H](COP(=O)(O)OP(=O)(O)OC[C@H]2O[C@@H](O)C(O)C2O)C(O)C1O` (stereo partly shown) [ADP-ribose, adenosine diphosphate ribose], the “reduction of tumor volume compared to the control group” value in assay [1] (setting [2]) is reported as “about 72.6%”. Besides, the “reduction of tumor volume compared to the group treated with 2 Gy dose of radiation alone” value in assay [1] (setting [2]) is recorded as “about 56.1%”. Also, the final tumor volume result in assay [1] (ADP-ribose 20 mg/kg subcutaneous 3 times a week + 2 Gy radiation, control about 2336.1, 2 Gy alone about 1459.6) is “about 640.4 mm^3”. Further, the “amount of ADP-ribose in cells compared to the control group” value in the assay on MDA-MB-231 cells is “remarkably increased significantly”. Moreover, the “survival rate of cancer cells” value with Caki-1 cells was “about 22.7%”; in the assay on Hep G2 cells it was “about 7.3%”. Also, the “amount of ADP-ribose in the cells over time compared to the control group” value with AsPC-1 cells is “maintained a significant (P<0.001) increase”.
